Reference: PubChem BioAssay (NCI)
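1) Cells in 96-well plates. 2) Compound, 48 h, 5 concentrations. 3) Linear interpolation between surrounding doses. 4) Unreached endpoint = highest concentration. Here, GI50 denotes the concentration required for 50% inhibition of growth. The concentration for full growth arrest is given as TGI.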

Columns and labels:
Assay in all cases: inhibition of tumour cell growth, NCI panel, 48 h
[1] = test system: SNB-19 CNS
[2] = test system: UACC-62 melanoma
[3] = test system: T-47D breast
[4] = test system: M14 melanoma
[5] = test system: ACHN renal
[6] = test system: MDA-MB-231 breast
[7] = test system: SF-268 CNS
[8] = test system: U251 CNS
[9] = test system: SK-MEL-5 melanoma
[10] = test system: TK-10 renal

SMILES	TGI [1] [µM]	TGI [2] [µM]	TGI [3] [µM]	TGI [4] [µM]	TGI [5] [µM]	TGI [6] [µM]	TGI [7] [µM]	TGI [8] [µM]	TGI [9] [µM]	TGI [10] [µM]	GI50 [1] [µM]	GI50 [2] [µM]	GI50 [3] [µM]	GI50 [4] [µM]	GI50 [5] [µM]	GI50 [6] [µM]	GI50 [7] [µM]	GI50 [8] [µM]	GI50 [9] [µM]	GI50 [10] [µM]
Cc1c(N)nc([C@H](CC(N)=O)NC[C@H](N)C(N)=O)nc1C(=O)N[C@H](C(=O)N[C@H](C)[C@@H](O)CC(=O)N[C@H](C(=O)NC(O[C@@H]1O[C@@H](C)[C@@H](N)[C@@H](O)[C@H]1O)C(O)c1nc(-c2nc(C(=O)NCCCCN)cs2)cs1)[C@@H](C)O)[C@@H](O[C@@H]1O[C@@H](CO)[C@@H](O)[C@H](O)[C@@H]1O[C@H]1O[C@H](CO)[C@@H](O)[C@H](OC(N)=O)[C@@H]1O)c1c[nH]cn1 (stereo not given in full)	> 50	> 50	> 50	> 50	> 50	> 50	> 50	> 50	> 50	> 50	–	–	–	–	–	–	–	–	–	–
C=C1C(=O)O[C@H]2[C@H]1CC/C(Cn1cc(Cc3c[nH]c4ccccc34)nn1)=C\CC[C@@]1(C)O[C@@H]21	6.33	3.13	4.7	3.07	2.8	3.48	3.27	3.63	3.61	3.4	2.55	1.66	1.87	1.31	1.47	1.72	1.7	1.89	1.89	1.82
